This assay concerns the target T1, ApKSL2 (Andrographis paniculata, UniProt A0A3G1S3U0).
T1 sequence (A0A3G1S3U0 41-814): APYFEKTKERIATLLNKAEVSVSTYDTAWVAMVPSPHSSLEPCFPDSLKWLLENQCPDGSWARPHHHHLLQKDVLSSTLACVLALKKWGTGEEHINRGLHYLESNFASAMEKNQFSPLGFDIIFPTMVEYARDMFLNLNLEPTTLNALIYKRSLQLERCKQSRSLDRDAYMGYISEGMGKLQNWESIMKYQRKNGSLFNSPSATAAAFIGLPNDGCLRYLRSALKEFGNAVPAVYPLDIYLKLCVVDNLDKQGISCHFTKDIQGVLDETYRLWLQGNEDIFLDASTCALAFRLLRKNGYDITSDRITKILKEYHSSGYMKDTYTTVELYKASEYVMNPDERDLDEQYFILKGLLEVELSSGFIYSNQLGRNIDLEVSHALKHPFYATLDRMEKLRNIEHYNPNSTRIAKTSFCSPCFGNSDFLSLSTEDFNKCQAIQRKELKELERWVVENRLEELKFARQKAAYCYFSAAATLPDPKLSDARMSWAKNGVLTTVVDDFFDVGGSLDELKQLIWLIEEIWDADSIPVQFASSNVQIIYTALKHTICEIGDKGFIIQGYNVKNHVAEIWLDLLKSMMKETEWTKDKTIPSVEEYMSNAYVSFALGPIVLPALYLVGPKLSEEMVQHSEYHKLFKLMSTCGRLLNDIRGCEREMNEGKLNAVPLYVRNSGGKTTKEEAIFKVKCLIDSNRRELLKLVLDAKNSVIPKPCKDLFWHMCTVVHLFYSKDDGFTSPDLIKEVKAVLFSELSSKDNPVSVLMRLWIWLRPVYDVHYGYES
The assay can be described thus: co-expression in E. coli, GC-MS of products. The class given is cell-based. Conditions: E. coli engineered to produce ent-CPP; product ent-kaurene.

As for `C=C1CC[C@@H]2C(C)(C)CCC[C@@]2(C)[C@@H]1CC/C(C)=C/COP(=O)(O)OP(=O)(O)O` [ent-CPP], the “co-expression in E. coli, GC-MS of products” value is “ApKSL2 acted on both ent-CPP, producing ent-kaurene”.

For the origin of these results see article PMC7252214 (The Plant journal : for cell and molecular biology, 2019).
